Key:
Assay type in all cases: in vivo
[1] = test system: lung MPO activity; experiment: Bleomycin-induced pulmonary fibrosis in mice: lung myeloperoxidase (MPO) assay; details: BLM mice; compared with BLM group, p<0.001; FIG. 36
Method: (§1) Mice were divided into fifth groups with 5 animals per group according to body weight: control group, BLM group, BLM+DEX group (7.5 mg/kg), BLM+ACH dosage group (50 mg/kg), and BLM+ACM dosage group (2.5 mg/kg), BLM+ACH dosage group (50 mg/kg), and BLM+ACM dosage group (25 mg/kg) BLM+AH dosage group (50 mg/kg), and BLM+AM dosage group (25 mg/kg) BLM+BH dosage group (50 mg/kg), and BLM+BM dosage group (25 mg/kg) BLM+CH dosage group (50 mg/kg), and BLM+CM dosage group (25 mg/kg) BLM+DH dosage group (50 mg/kg), and BLM+DM dosage group (25 mg/kg) BLM+EH dosage group (50 mg/kg), and BLM+EM dosage group (25 mg/kg) BLM. Pulmonary fibrosis (PF) was established in mice via a single intratracheal administration of BLM at 7.5 mg/kg mg/kg body weight. Different doses of samples were intragastrically administered daily for 21 days after BLM injury, and DEX was used as the positive control. Control and model groups received an equal volume of vehicle (0.9% NaCl) using the same schedule and route of administration.
The pulmonary MPO activity was a reliable index for estimating the infiltration of inflammatory cells in lungs. The lung tissues were homogenized and the MPO levels were detected with the kits according to manufacturer's instruction.

[2] = test system: bleomycin-induced pulmonary fibrosis in mice; experiment: Bleomycin-induced pulmonary fibrosis in mice: body and lung weight, lung index, histopathology, hydroxyproline; details: BLM mice; for hydroxyproline (HP) content in lung tissue: extract 1.0 g/kg, compound high-dose groups (50 mg/kg), p<0.001, FIG. 34; for Pulmonary index [(lung weight/body weight)×100]: BLM group 1.60 ± 0.02
Method: Specific pathogen-free ICR mice (males) (body weights 18-22 g) were purchased from the BioLASCO Taiwan Co., Ltd. (Taipei, Taiwan). The animals were housed in Plexiglas cages at a constant temperature of 22±1° C. and a relative humidity of 55±5% on a 12 h dark-light cycle for at least 2 weeks before the experiment. Animals were provided food and water ad libitum. All experimental procedures were performed according to the guidelines of the Institutional Animal Ethics Committee, and the protocol was approved by the Committee for the Purpose of Control and Supervision of Experiments on Animals.
Pulmonary fibrosis (PF) was established in mice via a single intratracheal administration of BLM at 7.5 mg/kg mg/kg body weight. Different doses of samples were intragastrically administered daily for 21 days after BLM injury, and DEX was used as the positive control. Control and model groups received an equal volume of vehicle (0.9% NaCl) using the same schedule and route of administration.
Mouse body weights were recorded daily. Mice were sacrificed on the 21th day using excess chloral hydrate hydrochloride anesthesia. Blood was obtained for ELISA analyses, and whole lungs were removed and weighed. […] The pulmonary coefficient was calculated using the following equation: lung weight/body weight×100%

[3] = test system: cisplatin-induced renal injury in C57BL/6 mice; experiment: Mice model of cisplatin-induced renal injury: serum CRE/BUN and kidney histopathology; details: for renal protection: normalization of serum CRE and BUN: cisplatin-treated mice, extracts at 1000 mg/kg, compound doses not given, p<0.001 vs cisplatin group
Method: Determination of biochemical parameters Serum creatinine and serum urea are assessed using colorimetric kits according to manufacturer's instructions. Kits of the former markers are purchased from (HUMAN Diagnostics Worldwide, Magdeburg, Germany) with a chemical analyzer (Roche Diagnostics, Cobas Mira Plus, Rotkreuz, Switzerland).
Kidney histopathology The anterior portion of the […] from each mouse is fixed in 10% formaldehyde phosphate butler, embedded in paraffin, cut into 5 μm sections, and then treated with an hematoxylin and eosin (H&E) stain for histological examination under the light microscopy (Nikon, ECLIPSE, TS100, Tokyo, Japan). Images are captured with a digital camera (NIS-Elements D 2.30, SP4, Build 387) at an original magnification of 400×.
(§2) Seven-to-eight-week-old male C57BL/6 mice are obtained from the BioLASCO Taiwan Co., Ltd, (Taipei, Taiwan). The animals are housed in Plexiglas cages at a constant temperature of 22±1° C. and a relative humidity of 55±5% on a 12 h dark-light cycle for at least 2 weeks before the experiment. Animals are provided food and water ad libitum. All experimental procedures are performed according to the guidelines of the institutional Animal Ethics Committee, and the protocol is approved by the Committee for the Purpose of Control and Supervision of Experiments on Animals.
Renal fibrosis is induced via multiple injections of low-dose cisplatin. Intraperitoneal injections of cisplatin (5 mg/kg/injection; P4394, Sigma-Aldrich, St Louis, MO) are performed at 0, 1, and 3 weeks, for a total of 3 injections. Mice are sacrificed at 6 weeks after the first dose of cisplatin (n=6). To analyze the effects of samples, mice are given daily intraperitoneal injections for 7 days, starting from 4 weeks after first dose of cisplatin, and sacrificed at 4 weeks (n=6).

[4] = test system: TNF-α, IL-1β, IL-6 and TGF-β levels in serum; experiment: Cisplatin-induced renal injury mice: serum pro-inflammatory cytokines by ELISA; details: cisplatin-treated mice, extract at 1000 mg/kg, FIG. 4
Method: TNF-α, IL-6, and IL-1β cytokines in serum The serum concentration of the pro-inflammatory cytokines (i.e. tumor necrosis factor-α (TNF-α), interleukin-6 ([…]), and IL-1β) in serum are assessed with relevant enzyme-linked immunosorbent assay ([…]) kits (Biosource International Inc., Sunnyvale, CA, USA), based on the manufacturer's instructions.
as §2
Renal fibrosis is induced via multiple injections of low-dose cisplatin. Intraperitoneal injections of cisplatin (5 mg/kg/injection; P4394, Sigma-Aldrich, St Louis, MO) are performed at 0, 1, and 3 weeks, for a total of 3 injections. Mice are sacrificed at 6 weeks after the first dose of cisplatin (n=6). To analyze the effects of samples, mice are given daily intraperitoneal injections for 7 days, starting from 4 weeks after first dose of cisplatin, and sacrificed at 4 weeks (n=6). […]

[5] = test system: CCl4-induced chronic liver fibrosis in SD rats; experiment: CCl4-induced chronic liver fibrosis in rat
Method: Blood samples are collected at week 0, 2, 4, 6, and 8. The animals are sacrificed at the end of the 8-week for histopathological examinations. FIGS. 7A, 7B, 7C depict delta weight, liver weight, and liver/body-weight ratio, respectively.
The level of clinical biochemistry such as aspartate aminotransferase (AST), alanine aminotransferase (ALT), is evaluated to determine the enzymatic activities of the livers of the control groups and the experimental groups (shown in FIGS. 8A-8C).

[6] = test system: TNF-α, IL-1β, IL-6 and TGF-β; experiment: Bleomycin-induced pulmonary fibrosis in mice: pro-inflammatory cytokines by ELISA; details: extract 1.0 g/kg, BH and DH (50 mg/kg), p<0.001, FIG. 35
Method: as §1, with “administration. […]” for “administration.”
The serum concentration of the pro-inflammatory cytokines (i.e. tumor necrosis factor-α (TNF-α), interleukin-6 (IL-6), and IL-1β) in serum were assessed with relevant enzyme-linked immunosorbent assay (ELISA) kits (Biosource International Inc., Sunnyvale, CA, USA), based on the manufacturer's instructions. […]

Row | Compound | lung MPO activity [1] | hydroxyproline (HP) content in lung tissue [2] | renal protection: normalization of serum CRE and BUN [3] | TNF-α, IL-1β, IL-6 and TGF-β production after BLM challenge [6] | other results
1 | C=C(CC[C@@H](C)[C@H]1CC[C@H]2C3=C(C(=O)C[C@]12C)[C@@]1(C)CC[C@@H](O)[C@](C)(O)[C@@H]1C[C@@H]3O)[C@@H](C)C(=O)O (racemic) [AR101-DS1, RS-Antcin K] | evidently suppressed the MPO activities | – | – | – | –
2 | C=C(CC[C@@H](C)[C@H]1CC[C@H]2C3=C(C(=O)C[C@]12C)[C@@]1(C)CC[C@@H](O)[C@](C)(O)[C@@H]1C[C@@H]3O)[C@@H](C)C(=O)O (stereo in doubt) [AR101-DS1, RS-Antcin K] | – | reduced lung HP | – | – | –
3 | C=C1C(=O)O[C@H]2/C=C(\C)CC3C=C(CC/C=C(\C)CC[C@H]12)C(=O)O3 (stereo partly shown) [AR100-DS1, Ovatodiolide] | evidently suppressed the MPO activities | reduced lung HP | significant renal protection effect | improved TNF-α, IL-1β, IL-6 and TGF-β production | kidney histopathology (H&E): necrosis and inflammatory infiltrating cells ([3]; cisplatin-stimulated mice, extract at 1000 mg/kg, FIG. 3): significantly improved necrosis and inflammatory infiltrating cells; serum NO, TNF-α, IL-1β and IL-6 production after cisplatin challenge [4]: improved NO, TNF-α, IL-1β, and IL-6 production; liver weight ([5]; 50 mg/kg, SD rats, 8 weeks CCl4, compared to Vehicle and Naïve group): significantly larger; liver appearance ([5]; 50 mg/kg, after 8 weeks of CCl4 induction): smooth surface without atrophy and sclerosis; serum AST and ALT level ([5]; 50 mg/kg, at W6 and W8, compared with the vehicle group): less AST and ALT increases; CCl4-induced liver injury, overall ([5]; SD rats, 8 weeks CCl4): potential to partially repair CCl4-induced liver injury
4 | C=C(CC[C@@H](C(=O)O)[C@H]1CC[C@@]2(C)C3=CC[C@H]4C(C)(C)[C@@H](O)CC[C@]4(C)C3=CC[C@]12C)C(C)C [AR101-DS4, Dehydroeburicoic Acid] | – | – | significant renal protection effect | – | –
5 | Dehydrosulphurenic acid/Sulphurenic acid [AR101-DS2] | evidently suppressed the MPO activities | reduced lung HP | – | improved TNF-α, IL-1β, IL-6 and TGF-β production | Pulmonary index [(lung weight/body weight)×100] ([2]; 25 mg/kg daily for 21 days): 1.26 ± 0.03; Pulmonary index [(lung weight/body weight)×100] ([2]; 50 mg/kg daily for 21 days, 50 mg/kg): 1.01 ± 0.02; Pulmonary index [(lung weight/body weight)×100] ([2]; 50 mg/kg daily for 21 days, listed as BH, 50 mg/kg): significant decrease

Source: patent US12582689B2, “Use of terpenoids in the treatment or prevention of fibrotic diseases” (ARJIL BIOTECH HOLDING COMPANY LIMITED, priority 2020, dated 2026)
